SMILES strings stand for the structures. Several values for one entry are separate records, joined by “and”; a condition that tells them apart may be missing. Equal values may be shown once.

From ChEMBL document CHEMBL5625274, “Improved synthesis, molecular modeling and anti-inflammatory activity of new fluorinated dihydrofurano-naphthoquinone compounds” (Bioorg Med Chem Lett, 2024) come the findings set out here.

Series [1] deals with RAW264.7. The experiment in a line: cells. The following applies: Mus musculus.
In series [2] the test system is RAW264.7. Nature of the series: cells. The following applies: Mus musculus. This is another data set of the same source.
A short description of series [3]: in vitro. The note with it: mouse, RAW264.7 cells.
Series [4] can be described thus: in vitro. The following applies: mouse, RAW264.7 cells; at 2 µg/mL.
The nature of series [5]: in vitro. The following applies: mouse, RAW264.7 cells; at 8 µg/mL.
For series [6], the system named is RAW264.7. Nature of the series: cells. The following applies: Mus musculus. This is another data set of the same source.
Series [7] is described as follows: in vitro. The following applies: mouse, RAW264.7 cells; at 32 µg/mL.
Series [8] can be described thus: in vitro. The note with it: mouse, RAW264.7 cells; at 0.5 µg/mL.
Series [9] deals with T1, Prostaglandin E synthase (Homo sapiens, UniProt O14684).
T1 sequence (O14684 whole entry): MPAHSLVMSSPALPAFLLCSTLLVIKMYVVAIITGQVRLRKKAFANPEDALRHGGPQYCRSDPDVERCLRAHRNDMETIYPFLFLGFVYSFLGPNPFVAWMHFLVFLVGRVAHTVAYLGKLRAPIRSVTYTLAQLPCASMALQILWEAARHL

As for `CCCCc1cc2c(o1)C(=O)c1ccccc1C2=O`, the IC50 in [1] and in [2] was over 2.9 µM each time.

Consider `O=C1C2=C(C(=O)c3ccccc31)[C@@H](c1ccc(OC(F)(F)F)cc1)[C@H](C(=O)c1ccccc1)O2`, for which the viability at 128 ug/mL in [3] turned out to be 34%. The compound also showed a viability at 2 ug/mL in [4] of 100%. This compound also yielded a viability at 8 ug/mL in [5] of 100%. The IC50 in series [6] was > 276 µM and > 128 µg/mL. The viability at 32 ug/mL in series [7] stood at 70%. Besides, the viability at 0.5 ug/mL in series [8] turned out to be 100%.

In the case of `O=C1C2=C(C(=O)c3ccccc31)[C@@H](c1ccc(O)cc1F)[C@H](C(=O)c1ccccc1)O2`, the viability at 128 ug/mL in series [3] was determined as 3%. The compound further gave a viability at 2 ug/mL in series [4] of 22%. The viability at 8 ug/mL in [5] amounted to 19%. This compound also yielded a viability at 32 ug/mL in series [7] of 15%. The compound also gave a viability at 0.5 ug/mL in [8] of 29%.

Consider `O=C1C2=C(C(=O)c3ccccc31)[C@@H](c1ccc(Oc3ccc(F)cc3)cc1)[C@H](C(=O)c1ccccc1)O2`, for which, in [3], the viability at 128 ug/mL is 29%. In series [4], this compound displayed a viability at 2 ug/mL of 99%. Further, the viability at 8 ug/mL in [5] amounted to 99%. The IC50 in series [6] is 222 µM and 109 µg/mL. Besides, the viability at 32 ug/mL in [7] came out at 99%. In addition, the viability at 0.5 ug/mL in series [8] was 100%.

Take `COc1ccc([C@@H]2C3=C(O[C@H]2C(=O)c2ccccc2)C(=O)c2ccccc2C3=O)c(C(F)(F)F)c1`: the viability at 128 ug/mL in [3] was found to be 40%. In addition, the viability at 2 ug/mL in series [4] is 100%. This compound also yielded a viability at 8 ug/mL in [5] of 100%. The IC50 in series [6] is > 268 µM and > 128 µg/mL. The same compound showed a viability at 32 ug/mL in [7] of 100%. Further, in series [8], the viability at 0.5 ug/mL was 100%.

In turn, `COc1ccc([C@@H]2C3=C(O[C@H]2C(=O)c2ccccc2)C(=O)c2ccccc2C3=O)c(F)c1` returned a viability at 128 ug/mL in [3] of 23%. In series [4], this compound registered a viability at 2 ug/mL of 40%. In addition, the viability at 8 ug/mL in series [5] was 38%. This compound showed a viability at 32 ug/mL in series [7] of 35%. Moreover, the viability at 0.5 ug/mL in [8] was 100%.

Take `COc1c(F)cc([C@@H]2C3=C(O[C@H]2C(=O)c2ccccc2)C(=O)c2ccccc2C3=O)cc1F`: the viability at 128 ug/mL in series [3] was determined as 22%. In series [4], the viability at 2 ug/mL came out at 67%. Further, in [5], the viability at 8 ug/mL turned out to be 64%. For the same compound, in [6], the IC50 was 3.52 µM and 1.57 µg/mL. Also, the viability at 32 ug/mL in series [7] was 51%. This compound also returned a viability at 0.5 ug/mL in series [8] of 85%.

Consider `O=C1C2=C(C(=O)c3ccccc31)[C@@H](c1ccc(F)cc1)[C@H](C(=O)c1ccccc1)O2`, for which, in series [3], the viability at 128 ug/mL is 2%. This compound also showed a viability at 2 ug/mL in [4] of 100%. In [5], this compound came in with a viability at 8 ug/mL of 69%. In addition, the IC50 in series [6] was 15.8 µM and 6.28 µg/mL. Also, the viability at 32 ug/mL in series [7] is 33%. Also, the viability at 0.5 ug/mL in series [8] came to 100%.

As for `Cc1cc2c(o1)C(=O)c1ccccc1C2=O`, the IC50 in [1] and in [2] was under 2.9 µM throughout.

In turn, `COc1cc(F)c([C@@H]2C3=C(O[C@H]2C(=O)c2ccccc2)C(=O)c2ccccc2C3=O)cc1F` displayed a Ki in [9] of 184 µM. Also, the viability at 128 ug/mL in series [3] is 15%. Also, the viability at 2 ug/mL in series [4] was found to be 60%. In addition, in series [5], the viability at 8 ug/mL came out at 59%. Also, the IC50 in series [6] was 3.92 µM and 1.75 µg/mL. Moreover, the viability at 32 ug/mL in [7] was determined as 16%. Besides, the viability at 0.5 ug/mL in series [8] amounted to 91%.

For `O=C1C2=C(C(=O)c3ccccc31)[C@@H](c1ccc(O)c(F)c1)[C@H](C(=O)c1ccccc1)O2`, the viability at 128 ug/mL in series [3] worked out at 4%. In addition, the viability at 2 ug/mL in [4] amounted to 45%. Besides, in [5], the viability at 8 ug/mL was determined as 41%. Besides, the viability at 32 ug/mL in series [7] came out at 10%. Moreover, the viability at 0.5 ug/mL in series [8] turned out to be 99%.

The compound `O=C1C2=C(C(=O)c3ccccc31)[C@@H](c1ccc(OC(F)F)c(O)c1)[C@H](C(=O)c1ccccc1)O2` had a viability at 128 ug/mL in series [3] of 2%. Besides, the viability at 2 ug/mL in [4] came out at 46%. The same compound had a viability at 8 ug/mL in series [5] of 15%. For the same compound, the viability at 32 ug/mL in series [7] amounted to 5%. The viability at 0.5 ug/mL in series [8] is 71%.

As for `O=C1C2=C(C(=O)c3ccccc31)[C@@H](c1ccccc1F)[C@H](C(=O)c1ccccc1)O2`, in [3], the viability at 128 ug/mL came to 0%. For the same compound, the viability at 2 ug/mL in series [4] was determined as 32%. The same compound had a viability at 8 ug/mL in series [5] of 20%. In series [7], this compound came in with a viability at 32 ug/mL of 15%. In addition, the viability at 0.5 ug/mL in [8] worked out at 81%.

On to `CCc1cc2c(o1)C(=O)c1ccccc1C2=O`, for which the IC50 in series [1] and in series [2] was over 2.9 µM each time.

As for `COc1ccc([C@@H]2C3=C(O[C@H]2C(=O)c2ccccc2)C(=O)c2ccccc2C3=O)cc1F`, the affinity in series [9], expressed as Ki, was 241 µM. The compound also showed a viability at 128 ug/mL in series [3] of 38%. Moreover, the viability at 2 ug/mL in series [4] was found to be 60%. The compound further returned a viability at 8 ug/mL in [5] of 51%. For the same compound, the IC50 in series [6] was 1.54 µM and 0.66 µg/mL. Also, the viability at 32 ug/mL in [7] was 41%. In series [8], this compound had a viability at 0.5 ug/mL of 71%.
